Results reported in patent US12648941B2, “Piperidine urea derivatives for use as inotropic agents” (Helsinn Healthcare SA, priority 2021, dated 2026).
“Also recorded” adds a separate entry of the source.

How the values were obtained:
[1] = system: cardiomyocytes isolated from hearts of SHAM mice; assay: Cardiomyocyte contractility (fractional shortening, % FS), SHAM cardiomyocytes; format: cell-based, mouse
Method: (§1) Cardiomyocytes were isolated freshly from cardiac ventricles separately from SHAM and HF mice following the protocol developed by the Alliance for Cellular Signalling (AfCS Procedure Protocol ID PP00000125). From each of the 5 SHAM and 3 HF hearts a cell suspension was made and divided into 10 aliquots each, for a total of 50 aliquots from SHAM and 30 aliquots from HF hearts. These aliquots were treated with vehicle, AC01/HM01 or D-Lys3-GHPR-6+AC01/HM01 as stated and used for the subsequent physiological and biochemical experiments.
(§2) AC01/HM01 was suspended in phosphate buffer saline solution (PBS: in mM: NaCl 137, KCl 7, Na2HPO4 10, KH2PO4 […]) and diluted to obtain 3 different concentrations: 0.2, 0.5 or 1 μM in Tyrode solution. We used a concentration range within 0.2-1 μM to ensure that the receptor was activated. […] Prior to contractility and Ca^2+ signaling measurements and biochemical assays, cardiomyocyte suspensions from SHAM and HF hearts were randomized to 3 types of treatments: vehicle, AC01/HM01, or D-Lys3-GHPR-6+AC01/HM01. The treatment with different agents occurred for 15 minutes at room temperature. Some cell suspension aliquots were flash frozen in liquid N2 and stored at −80° C. for later biochemistry analyses. All the experiments were conducted blinded regarding the treatment of cardiomyocytes.
Fresh isolated cardiomyocytes were aliquoted in 1.5 mL tubes and incubated with a cell permeable form of the fluorescent Ca^2+ indicator Fluo-3 AM for approximately 20 minutes followed by washing for >5 min. The cells were plated on laminin coated glass bottom dishes (35 mm, Mattek, Ashland, MA, USA), and then mounted in a custom built perfusion/stimulation chamber. Cells were continuously perfused with O2/CO2 (95/5%) bubbled Tyrode solution with the following composition (in mM): NaCl 121, KCl 5.0, CaCl2 1.8, MgCl2 0.5, NaH2PO4 0.4, NaHCO3 24, EDTA 0.1, glucose 5.5, which represents the vehicle solution.
15 aliquots of cardiomyocyte suspension from SHAM and 9 aliquots from HF were randomized to different treatments: vehicle, AC01/HM01 (0.2, 0.5 or 1 μM) or pretreatment with D-Lys3-GHPR-6 (3 μM) followed by AC01/HM01 (1 μM). The cardiomyocytes were electrically stimulated to contract at 1 Hz with supra-threshold voltage using two platinum electrodes attached to the perfusion/stimulation chamber.
(§3) Line scan fluorescence images were acquired using a confocal microscope (Biorad; 40× oil immersion lenses). […] ImageJ software (open source software developed by NIH, Bethesda, USA) was used to quantify changes in fluorescence (Ca^2+ transients) and contractility of single cardiomyocytes.
(§4) The contractility of cardiomyocytes was measured as the percent of length shortening (fractional shortening; % FS). […]

[2] = system: cardiomyocytes isolated from hearts of heart failure (HF) mice; assay: Cardiomyocyte contractility (fractional shortening, % FS), heart failure (MI) cardiomyocytes; format: cell-based, mouse; conditions: 1 μM
Method: as §1
AC01/HM01 was suspended in phosphate buffer saline solution (PBS: in mM: NaCl 137, KCl 7, Na2HPO4 10, KH2PO4 […]) and diluted to obtain 3 different concentrations: 0.2, 0.5 or 1 μM in Tyrode solution. We used a concentration range within 0.2-1 μM to ensure that the receptor was activated. […]
as §3, §4

[3] = system: phospho (Ser 22-23) cardiac troponin I (cTnl); assay: Phospho (Ser 22-23) cTnl western blot in cardiomyocytes; format: cell-based, mouse; conditions: SHAM cardiomyocytes; 1 μM; western blot normalized to total cTnl
Method: as §2
Aliquots of frozen cardiomyocyte suspensions were lysed using NP40 buffer (Thermo Fisher FNN0021, Stockholm, Sweden) supplemented with phosphatase inhibitors (Sigma-Aldrich P2850-1ML, P5726-1ML, Stockholm, Sweden). Protein lysates were separated by electrophoresis and transferred onto membranes. Membranes were incubated with primary antibody: rabbit anti phospho (Ser 22-23) cardiac troponin I (cTnl, Cell Signalling, Leiden, The Netherlands #4004S) and rabbit anti-cTnl (Cell Signalling #4002S, Leiden, The Netherlands). Thereafter, infrared-labelled secondary antibodies (IRDye 680 and IRDye 800, 1:5000, Licor) were used. Immunoreactive bands were analyzed using the Odyssey Infrared Imaging System (Li-Cor, Bad Homburg, Germany). Band densities were quantified with Image J (NIH, Bethesda, USA), normalized to total cTnl and final data was expressed as fold increase compared to bands representing protein extracted from vehicle treated cells.

[4] = system: growth hormone (GH); assay: Phase 1 SAD pharmacodynamics, serum GH (ELISA); format: in vivo, human
Method: (§5) Blood samples for determination of growth hormone (GH), insulin-like growth factor-1 (IGF-1), adrenocorticotropic hormone (ACTH), prolactin, cortisol and aldosterone in serum at pre-dose and 0.5, 1, 2, 3, 4, 6 and 24 hours post-dose were collected by venous puncture. All biomarkers were determined using enzyme linked immunosorbent assays (ELISA). Simplified nutritional appetite questionnaire based on appetite assessments at Day −1 after dinner, and on Day 1 pre-dose, 1, 2, 4, 8, and 24 hours after dosing. Stool diary starting on Day 1 until discharge on Day 4.

[5] = system: insulin-like growth factor-1 (IGF-1); assay: Phase 1 SAD pharmacodynamics, serum IGF-1 (ELISA); format: in vivo, human; conditions: 0.1-10 mg
Method: as §5

[6] = system: aldosterone; assay: Phase 1 SAD pharmacodynamics, serum aldosterone (ELISA); format: in vivo, human
Method: as §5

[7] = Phase 1 SAD, simplified nutritional appetite questionnaire; format: in vivo, human; conditions: 0.1-10 mg
Method: as §5

[8] = Phase 1 SAD, safety and tolerability; format: in vivo, human
Method: Single-center, randomized, double-blind, placebo-controlled, single ascending dose (SAD) study. Screening examinations were performed within 28 days prior to dosing. Eligible subjects returned to the study center in the morning of Day-1 and remained in-patient until discharge at 72 hours after dosing (morning of Day 4) if there were no safety issues. The oral dose was administered in the morning of Day 1. Subjects returned to the clinic 7 days after treatment, in the morning of Day 8 (±1 day), for the safety assessments. Adverse events (AEs), vital signs (blood pressure, pulse rate and body temperature), 12-lead ECG, Holter-ECG, physical examination (PE), and laboratory tests (hematology, clinical chemistry, and urinalysis) assessed during screening and several times throughout the study.

SMILES: COc1ccc([C@H](C)NC(=O)N(C)[C@@H]2CCN(C)CC2(C)C)c(Cl)c1Cl.Cl [AC01/HM01, 1-[(1S)-1-(2,3-dichloro-4-methoxyphenyl)ethyl]-3-methyl-3-[(4R)-1-methyl-3,3-dimethyl-4-piperidyl]-urea]
- contractility, fractional shortening (FS %) vs vehicle ([1]; 0.5 μM): considerable and statistically significant response
- contractility, fractional shortening (FS %) vs vehicle ([1]; 1 μM): considerable and statistically significant response; also recorded: significant increase of contractility; also recorded: greatest contractile effect compared to vehicle; also recorded: positively responded
- contractility, length fractional shortening (FS %), concentration dependence ([1]; 0.2, 0.5 and 1 μM vs vehicle, 1 Hz stimulation): increased in a dose-dependent manner; also recorded: dose-dependent increase
- contractility, fractional shortening (FS %) vs vehicle [2]: significant increase of contractility; also recorded: positively responded
- phosphorylation of cTnl (Serine 22-23) vs vehicle [3]: decreased phosphorylation levels; also recorded: reduced the levels of phosphorylation
- GH increase ([4]; 0.3 and 0.1 mg HM01): lower increases
- GH increase ([4]; 1.0 and 10 mg HM01): higher
- mean GH curves, comparison of doses ([4]; 1.0 vs 10 mg HM01): similar
- time of peak GH concentrations ([4]; after single oral administration): 2-3 hours post-dose
- concentrations of GH vs baseline ([4]; after single oral administration, healthy males): increased from baseline
- IGF-1 serum levels, dose groups vs placebo [5]: No relevant differences
- concentrations of aldosterone ([6]; 1.0 and 10 mg HM01): rapidly increased above baseline values
- aldosterone increase, comparison of doses ([6]; 1.0 vs 10 mg): similar
- appetite questionnaire, dose groups vs placebo [7]: no relevant or consistent differences
- TEAEs reported ([8]; 0.1 mg): no TEAEs
- number of TEAEs ([8]; 0.3 mg): 5 TEAEs
- number of TEAEs ([8]; 1.0 mg): 7 TEAEs
- subjects reporting TEAEs of moderate intensity ([8]; 1.0 mg, hot flush): 1 subject
- number of TEAEs ([8]; 10 mg): 19 TEAEs
- subjects reporting TEAEs of moderate intensity ([8]; 10 mg, sinus bradycardia): 1 subject
- number of subjects reporting TEAEs and number of TEAEs, dose dependence ([8]; 0.1-10 mg single oral dose): increased dose-dependently
- mean systolic and diastolic blood pressure and body temperature ([8]; after dosing / between treatment groups): no clinically relevant changes
- intensity of TEAEs ([8]; all dose groups): Most TEAEs were of mild intensity
- laboratory parameters, differences between dosing groups ([8]; in vivo): no clinically relevant differences
- most frequently reported TEAEs ([8]; started mainly shortly after dosing, short duration): nervous system disorder (mainly headache) and cardiac disorders (mainly sinus bradycardia)
